In ChEMBL document CHEMBL1201861, “Genomics of Drug Sensitity in Cancer screening data, Wellcome Trust Sanger Institute” one finds IC50 data, which are given here for eleven compounds.

The test system of assay [1] is CESS. Description: SANGER: Inhibition of human CESS cell growth in a cell viability assay. Type of assay: functional, cell-based. The note with it: Homo sapiens, CESS.
Assay [2] deals with SU-DHL-1. Description: SANGER: Inhibition of human SU-DHL-1 cell growth in a cell viability assay. Type of assay: functional, cell-based. To be noted: Homo sapiens, SU-DHL-1.
Assay [3] relates to HCC1599. Description: cells. Type of assay: functional, cell-based, Homo sapiens. The note with it: Homo sapiens, HCC1599.
Description: SANGER: Inhibition of human HCC1599 cell growth in a cell viability assay.
Assay [4] deals with ST486. As to the kind of experiment: SANGER: Inhibition of human ST486 cell growth in a cell viability assay. It is filed as functional, cell-based. To be noted: Homo sapiens, ST486.
In assay [5] the test system is LC4-1. Description: cells. Type of assay: functional, cell-based, Homo sapiens. To be noted: Homo sapiens, LC4-1.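 Also: growth inhibition of LC4-1 cells, read out with a cell viability assay.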
Description: SANGER: Inhibition of human LC4-1 cell growth in a cell viability assay.
Assay [6] concerns LP-1. As to the kind of experiment: cells. It is filed as functional, cell-based, Homo sapiens. The note with it: Homo sapiens, LP-1.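 Also: growth inhibition of human LP-1 cells, with the read-out taken from a cell viability assay.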
Description: SANGER: Inhibition of human LP-1 cell growth in a cell viability assay.
Assay [7] has as its system RL. As to the kind of experiment: cells. Type of assay: functional, cell-based, Homo sapiens. The note with it: Homo sapiens, RL.
Description: SANGER: Inhibition of human RL cell growth in a cell viability assay.
Assay [8] has as its system NCI-H1436. Description: cells. Type of assay: functional, cell-based, Homo sapiens. To be noted: Homo sapiens, NCI-H1436.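 Also: growth suppression of human NCI-H1436 cells, determined with a cell viability readout.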
Description: SANGER: Inhibition of human NCI-H1436 cell growth in a cell viability assay.
Assay [9] has as its system NCI-H322M. Description: cells. Type of assay: functional, cell-based, Homo sapiens. To be noted: Homo sapiens, NCI-H322M.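 Also: cell viability assay measuring inhibition of growth of human NCI-H322M cells.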
Description: SANGER: Inhibition of human NCI-H322M cell growth in a cell viability assay.
The test system of assay [10] is NCI-H1417. As to the kind of experiment: cells. The note with it: Homo sapiens, NCI-H1417. Type of assay: functional, cell-based, Homo sapiens.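 Also: human NCI-H1417 cells, growth inhibition determined with a cell viability readout.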
Description: SANGER: Inhibition of human NCI-H1417 cell growth in a cell viability assay.
Assay [11] relates to MHH-CALL-2. As to the kind of experiment: cells. Type of assay: functional, cell-based, Homo sapiens. To be noted: Homo sapiens, MHH-CALL-2.
Description: SANGER: Inhibition of human MHH-CALL-2 cell growth in a cell viability assay.

As for `COc1cc(N2CCN(C)CC2)ccc1Nc1ncc2c(n1)N(C)c1ccccc1C(=O)N2C`, the IC50 – broadly, the concentration that inhibits the measured activity by half – in [1] was 7.75 µM; in assay [2] it was more than 8 µM; in assay [3], more than 8 µM; in assay [4] it was 3.49 µM; in [5], 4.02 µM; in assay [6], more than 8 µM. Further, the IC50 is 2.78 µM in assay [7]; more than 8 µM in assay [8]; more than 8 µM in [9]; more than 8 µM in [10]; more than 8 µM in [11].
Consider `COc1cc(-c2nn([C@H]3CC[C@H](N4CCN(C(C)=O)CC4)CC3)c3ncnc(N)c23)ccc1NC(=O)c1cc2ccccc2n1C`, for which the IC50 in assay [1], in assay [2], in [3], in assay [4], in [5] and in assay [6] was more than 5.12 µM throughout. Besides, the IC50 in assay [7] was more than 5.12 µM; in assay [8] it was 3.19 µM; in assay [9] it was more than 5.12 µM; in [10] it was more than 5.12 µM; in [11], more than 5.12 µM.
Consider `OCCCNc1cc(-c2ccnc(Nc3cccc(Cl)c3)n2)ccn1`, for which the half-maximal inhibitory concentration (IC50) in assay [1] worked out at 0.0401 µM; in assay [2], 0.211 µM; in assay [3] it was 0.0439 µM; in assay [4] it was 0.0312 µM; in assay [5], 0.0713 µM; in [6], 0.0521 µM. The concentration for half-maximal inhibition (IC50) is more than 0.256 µM in assay [7]; 0.251 µM in assay [8]; more than 0.256 µM in assay [9]; more than 0.256 µM in assay [10]; 0.0855 µM in assay [11].
For the compound `Cc1ccc(-c2c(C(=O)CCl)n(CCCO)c3ncnc(N)c23)cc1`, the IC50 in assay [1] is more than 4 µM; in [2], more than 4 µM; in [3], 2.17 µM; in [4], more than 4 µM; in assay [5], more than 4 µM; in assay [6] it was more than 4 µM. Further, the IC50 in [7], in [8], in assay [9], in assay [10] and in [11] was more than 4 µM in each case.
Turning to `C#Cc1cccc(Nc2ncnc3cc(OCCOC)c(OCCOC)cc23)c1` [ERLOTINIB], the IC50 in [1], in [2], in assay [3], in assay [4], in [5] and in [6] was more than 2 µM each time. Besides, the IC50 in [7], in assay [9], in assay [10] and in assay [11] was more than 2 µM each time.
Regarding `COc1cc2ncn(-c3cc(OCc4ccccc4S(C)(=O)=O)c(C#N)s3)c2cc1OC` [GSK-319347A], the IC50 in assay [1], in assay [2], in assay [3], in [4], in assay [5] and in assay [6] was more than 5 µM each time. Besides, the IC50 in assay [7], in assay [8], in assay [9], in [10] and in assay [11] was more than 5 µM each time.
On to `COc1cc2ncn(-c3cc(OCc4ccccc4C(F)(F)F)c(C(N)=O)s3)c2cc1OC` [GW843682X], for which the IC50 in assay [1] is 0.0132 µM; in [2] it was 0.0943 µM; in assay [3], 0.0185 µM; in assay [4] it was 0.0204 µM; in [5] it was 0.0545 µM; in assay [6], 0.0625 µM. For the same compound, the IC50 in [7], in assay [8], in assay [9], in assay [10] and in assay [11] was more than 0.256 µM in each case.
Regarding `CC(=O)O[C@H]1C(=O)[C@@]2(C)[C@H]([C@H](OC(=O)c3ccccc3)[C@]3(O)C[C@H](OC(=O)[C@H](O)[C@@H](NC(=O)c4ccccc4)c4ccccc4)C(C)=C1C3(C)C)[C@]1(OC(C)=O)CO[C@@H]1C[C@@H]2O` [PACLITAXEL], the IC50 in assay [1] was 0.00737 µM; in [2], more than 0.102 µM; in [3], 0.0202 µM; in assay [4] it was 0.012 µM; in [5] it was 0.0435 µM; in [6] it was more than 0.102 µM. Moreover, the IC50 in assay [7] was more than 0.102 µM; in assay [8] it was 0.0123 µM; in assay [9] it was more than 0.102 µM; in assay [10] it was more than 0.102 µM; in assay [11], 0.0356 µM.
Consider `N[C@@H](CSC(c1ccccc1)(c1ccccc1)c1ccccc1)C(=O)O` [S-TRITYL-L-CYSTEINE], for which the IC50 in assay [1] was 0.606 µM; in assay [2], more than 5.12 µM; in [3], 1.23 µM; in [4], 2.09 µM; in assay [5], 2.02 µM; in assay [6] it was 3.11 µM. Besides, the 50% inhibitory concentration (IC50) in assay [7] was more than 5.12 µM; in [8], 0.889 µM; in [9] it was more than 5.12 µM; in assay [10], more than 5.12 µM; in assay [11], more than 5.12 µM.
Regarding `CC[C@H](CO)Nc1nc(NCc2ccccc2)c2ncn(C(C)C)c2n1` [SELICICLIB], the IC50 in [1] is more than 16 µM; in [2], more than 16 µM; in assay [3], 14.6 µM; in assay [4], 10.4 µM; in assay [5], more than 16 µM; in assay [6], more than 16 µM. The IC50 in [7], in assay [8], in assay [9], in assay [10] and in [11] was more than 16 µM in each case.
Regarding `CCN(CC)CCNC(=O)c1c(C)[nH]c(/C=C2\C(=O)Nc3ccc(F)cc32)c1C` [SUNITINIB], the IC50 in assay [1] is 7.1 µM; in assay [2] it was 4.8 µM; in assay [3], more than 8 µM; in assay [4], 6.35 µM; in assay [5] it was 4.38 µM; in assay [6], more than 8 µM. The IC50 in assay [7] is more than 8 µM; in [8] it was more than 8 µM; in [9] it was more than 8 µM; in assay [10], more than 8 µM; in assay [11], 5.77 µM.
